As a reminder, the IC50 is the concentration that gives 50% inhibition.

Results on four compounds are retold here after US10022357B2, “Amyloid precursor protein MRNA blockers for treating Down syndrome and Alzheimer's disease” (THE GENERAL HOSPITAL CORPORATION, priority 2013, dated 2018).

For one assay, the system named is APP 5′UTR. Type of assay: cell-based, human. As to the method: The LDDN library had already yielded small molecules that inhibit mesangial cell proliferation, following three-dimensional pharmacophore modeling and screening. A second Molecular Libraries Screening Centers Network HTS was conducted at the Columbia University Genome Center to generate hits as listed on PUBCHEM (AID: 1285), from which the dose-response assays identified 50 lead APP 5′UTR-directed luciferase reporter inhibitors. […] These were directly measured and found not to inhibit luciferase enzyme activity. […] These thirteen leads were tricyclic aromatic compounds that included two major classes of hits: compounds with a benzimidazole backbone, i.e. APP blockers 2, −7, and −9 (JTR-009) and compounds with a benzothiazole backbone, i.e. APP blockers −8 and −13. The compounds with a benzothiazole backbone were also identified to be similar to PFTα, another benzothiazole, and P53 inhibitor, by showing protection against oxidative injuries in synaptosomes from wild-type mice and preserving presynaptic terminals in cultured hippocampal neurons exposed to etoposide).
APP 5′UTR-Luciferase inhibitor compounds obtained from the preliminary HTS of pIRES-APP-5′UTR transfectants were picked, and the dose-response assays were conducted at 0.1, 1.0, and 5.0 μM (based on the exact molecular weights of the compounds). […] Each hit was added in 5 wells, and this was repeated twice on 2 different days. There was a positive control and negative control column of cells as previously described.
To identify APP 5′UTR-specific translation blockers from LDDN Harvard (see ref [21]) and from the Columbia University Genome center, the inventors then counter-screened against the PrP 5′UTR and shortlisted thirteen potent inhibitors to be further characterized. In FIG. 1D, the listed constructs were employed to conduct these transfection based assays to ensure that the 13 APP specific leads were not also PrP inhibitors. Table 1 lists the IC50 of each of these inhibitors with respect to their dose-responsive capacity to reduce APP 5′UTR-driven luciferase expression relative to their IC50 values against PrP 5′UTR expression.

Another assay deals with APP mRNA. The class given is cell-based, human. As to the method: (§1) qRT-PCR was conducted to measure the capacity of JTR-009 to change steady state levels of […] levels, as was previously described (see Ref [6]). Desferrioxamine treatment was used for a positive control to assess changes to the steady state levels of both APP mRNA and transferrin receptor mRNAs. Primers for β-actin were employed as a control for an mRNA previously shown to be unchanged by desferrioxamine and other inducers. Experiments were carried out on the ABI Prism 7000 sequence detection system (Applied Biosystems). […] The primers to β-actin, TfR1 were designed and ordered from Invitrogen. The APP primer set was purchased from Qiagen and has been benchmarked on several reports for accurate measurement of APP mRNA levels.

For a further assay, the system named is IRP1 binding to APP IRE. The assay is described as follows: Biotinylated RNA pulldown assay, IRP1 binding to APP IRE probe. On the set-up: species or system human. On the procedure:
(§2) Biotinylated RNA oligonucleotides: […] Paramagnetic streptavidin-conjugated Dynabeads (Invitrogen) were washed with ribonucleoprotein immunoprecipitation buffer, added into lysates to bind IRP(1/2)-biotinylated-RNA complexes, and incubated for 1 hour at room temperature. After five washes, the proteins that bound to the beads were analyzed by Western blotting for IRP1, IRP2, and biotin. […] The IREs-bound IRPs were quantified by Quantity One® software (Bio-Rad).

Assay [1] relates to IRP1 and IRP2 binding to H-ferritin IRE. The assay is described as follows: Biotinylated RNA pulldown assay, IRP1/IRP2 binding to H-ferritin IRE probe. On the set-up: species or system human. The settings on record: same conditions as APP IRE pulldown. As to the method: as §2
Assay [2] concerns APP and amyloid-beta. Type of assay: cell-based. The settings on record: Table 2; printed in brackets as max; read-out: APP and amyloid-beta Inhibition (IC50), max.
A further assay has as its system PrP 5′UTR. The assay is described as follows: cells. Particulars: Homo sapiens, SH-SY5Y, read-out: IC50 to reduce 5′UTR driven luciferase expression in pIRES-PrP-5′UTR transfectants.
Assay [3] relates to APP.
Protocol: After cells were exposed to increasing concentrations of the compounds as outlined in each figure legend, cytoplasmic protein lysates were prepared by homogenizing the cells in midRIPA buffer (25 mM Tris pH 7.4, 1% NP40, 0.5% sodium deoxycholate, 15 mM NaCl, protease inhibitors, RNase inhibitor and 10 μM DTT). Western blotting for APP was performed using the N-terminal 22C11 antibody (Millipore, Inc) and the A8717 C-terminal specific APP antibody (Sigma, inc), while αsyn was detected using mouse monoclonal anti-αsyn (BD Transduction Laboratories) and anti-β-actin (Chemicon). The blots were developed using chemiluminescence (PIERCE, Rockford, Ill.) and visualized with a Phosphoimager (BioRad, Hercules, Calif.). The bands were quantified using QuantityOne® software (BioRad).
The next assay has as its system α-synuclein (SNCA). The experiment in a line: Western blot of α-synuclein levels in primary mouse neurons. On the technique in general: A western blot detects proteins with antibodies after separation by electrophoresis.
The subject of assay [4] is APP. The experiment in a line: Western blot of APP levels in primary mouse cortical neurons.
Protocol: Primary cortical neurons from wild type mice and from the PAC-Tg(SNCA(wt) human SNCA genomic mice [22] were cultured as outlined by the method of Ray et al., 2009 [23]. The embryonic (E15-18) pups were recovered after sacrificing pregnant females, separated out the brain, and removed the meninges and blood vessels. The cortices were then dissected out and placed them in separate Eppendorf tubes containing 500 uL of HBSS without Ca+^2/Mg^+2 salts supplemented with 1 mM sodium pyruvate and 10 mM HEPES, pH 7.4. On ice, individual cells were isolated by titrating 10 times using a glass pasture pipette with the tip barely fire polished. […]
(§3) After cells were exposed to increasing concentrations of the compounds as outlined in each figure legend, cytoplasmic protein lysates were prepared by homogenizing the cells in midRIPA buffer (25 mM Tris pH 7.4, 1% NP40, 0.5% sodium deoxycholate, 15 mM NaCl, protease inhibitors, RNase inhibitor and 10 μM DTT). Western blotting for APP was performed using the N-terminal 22C11 antibody (Millipore, Inc) and the A8717 C-terminal specific APP antibody (Sigma, inc), while αsyn was detected using mouse monoclonal anti-αsyn (BD Transduction Laboratories) and anti-β-actin (Chemicon). […] The bands were quantified using QuantityOne® software (BioRad).
In the next assay the test system is TfR mRNA. The class given is cell-based, human. The settings on record: iron chelation, 25 μM, positive control. As to the method: as §1
Assay [5] deals with APP and amyloid-beta. The settings on record: Table 2; Refs 27, 33; read-out: APP and amyloid-beta Inhibition (IC50); cited from earlier work.

“Also recorded” adds a separate entry of the source. Like-named read-outs stand apart in the source and are kept apart here.

Protocol for α-synuclein (SNCA): Primary cortical neurons from wild type mice and from the PAC-Tg(SNCA(wt) human SNCA genomic mice [22] were cultured as outlined by the method of Ray et al., 2009 [23]. The embryonic (E15-18) pups were recovered after sacrificing pregnant females, separated out the brain, and removed the meninges and blood vessels. The cortices were then dissected out and placed them in separate Eppendorf tubes containing 500 uL of HBSS without Ca+^2/Mg^+2 salts supplemented with 1 mM sodium pyruvate and 10 mM HEPES, pH 7.4. On ice, individual cells were isolated by titrating 10 times using a glass pasture pipette with the tip barely fire polished. The volume was adjusted to 1.5 mL, by adding 1 mL of HBSS with Ca^+2/Mg^+2 salts+Na. pyruvate+HEPES, restoring the divalent cations by adding HBSS so that the non-dispersed tissue could settle for 5 min, on ice. In the tissue culture laminar hood, the supernatant was transferred into a new 15 mL tube and centrifuged for 1 minute at 900 rpm, 4° C. The pellet was gently re-suspended in 2 mL of HBSS with Ca^+2/Mg^+2 salts+Na pyruvate+HEPES and took an aliquot for counting (2 mL for approx 5 embryos). The cells were then plated at ˜1×10^5 cells/well of a 24 well or 2×10^5/in 12 well plates. Each set of plates was coated with poly D-lysine containing poly L-lysine coverslips for micro immuncytochemical confirmation of neuronal integrity.
as §3

For the compound `COc1cc(SC)ccc1C(=O)Nc1nc2ccccc2[nH]1` [BL-1], the “concentration to inhibit APP 5′UTR conferred translation, times less than strophanthidin” value in the assay with APP 5′UTR (FIG. 8, relative to strophanthidin) is listed as 500 times.
`Cc1ccc2[nH]c(-c3ccc(N)cc3)nc2c1` [JTR-009, 4-(5-methyl-1H-benzimidazol-2yl) aniline]: in the assay on APP 5′UTR (0.1 μM drug, N=4), the “reduction of APP 5′UTR activity” value is “two-fold”. In addition, the concentration for half-maximal inhibition (IC50) in the assay with APP 5′UTR (Homo sapiens, SH-SY5Y, 384-plate assays, inhibition curves, first IC50 line of Table 1, read-out: IC50 to reduce 5′UTR driven luciferase expression in pIRES-APP-5′UTR transfectants) was 400 nM; with APP 5′UTR (Homo sapiens, SH-SY5Y, FIG. 4A, dose response, N=4, read-out: IC50 to limit APP 5′UTR-luciferase expression) it was 100 nM; in the assay with APP 5′UTR (Homo sapiens, SH-SY5Y, Table 2, read-out: APP 5′UTR Inhibition (IC50)) it was 100 nM; with APP 5′UTR (Homo sapiens, SH-SY5Y, dose-responsive measurements, range, read-out: IC50 against the APP 5′UTR) it was 1 to 100 nM; in the assay on APP and amyloid-beta [2] it was 10 nM; with PrP 5′UTR, 4000 nM. Moreover, in the assay with APP [3] (read-out: IC50 for translational inhibition of APP, dose-responsive assays), the IC50 is less than 1000 nM. The “fold more potent/effective than posiphen to limit APP 5′UTR driven translation” value with APP 5′UTR (relative to posiphen, listed as Formula I) is on record as “about 10 fold”. Also, the “APP mRNA levels” value with APP mRNA (0.1 nM to 10 μM drug, N=4) was “unchanged”. In the assay with APP mRNA (100 μM), the “increase of APP mRNA levels” value is roughly 10%. Further, the “reduction of IRP1 binding to biotinylated APP IRE RNA probes” value in the assay with IRP1 binding to APP IRE (0.3 μM, N=7) was found to be 20%; with IRP1 binding to APP IRE (3 μM, N=7), 50%. For the same compound, in the assay with IRP1 binding to APP IRE (3 μM, 48 hour exposure), the “fold reduction of IRP1 binding to the APP IRE” value is on record as 2 fold. In the assay with IRP1 binding to APP IRE (30 μM, N=7), the “IRP1 binding to biotinylated APP IRE RNA probes” value is listed as “completely inhibited”. Moreover, the “IRP1/IRP2 binding to H-ferritin IRE probes” value in assay [1] is listed as “always maintained; also recorded: no inhibitory change”. In addition, the “concentration that limits APP translation” value in the assay on APP [3] is reported as “less than one”. The “reduction of APP in lysate supernatants of RNA pulldown” value was found to be 35% in the assay with APP [3] (3 μM) and 70% in the assay with APP [3] (30 μM). In addition, the “reduction of APP (densitometry, β-actin standardized)” value with APP [3] (20 μM, 48 hour treatment) is given as 50%. Moreover, the “APP levels, percent of control levels” value in the assay on APP [3] (30 μM, 48 hours, N=5) came out at 30%. In addition, the “average pair-wise reduction of SNCA levels (threshold)” value in the assay with α-synuclein (SNCA) (0.001 μM, 48 hours) came to 50%. In addition, in the assay with α-synuclein (SNCA) (primary mouse neurons, same treatment as APP reduction), the “α-synuclein (SNCA) levels” value is reported as “unchanged; also recorded: no significant changes”. In addition, in the assay on APP [4] (concentrations as low as 10 nM, primary mouse cortical neurons), the “reduction of APP levels” value was found to be 60%. In addition, in the assay on APP [4] (primary mouse E-18 neurons), the “lowest dose that inhibited APP levels” value was 1 nM.
With `CC(=O)N(O)CCCCCNC(=O)CCC(=O)N(O)CCCCCNC(=O)CCC(=O)N(O)CCCCCN` [desferrioxamine, reference compound], the “APP mRNA levels” value in the assay on APP mRNA (iron chelation with desferrioxamine) is “unchanged”. In addition, in the assay on TfR mRNA, the “increase of transferrin receptor mRNA levels” value came out at 2 fold.
As for `CN1CC[C@]2(C)c3cc(OC(=O)Nc4ccccc4)ccc3N(C)[C@H]12` [posiphen, reference compound], in the assay with APP 5′UTR (0.1 μM drug, matched conditions), the “increase of APP 5′UTR activity” value is on record as 15%. The 50% inhibitory concentration (IC50) in the assay with APP 5′UTR (FIG. 4A, dose response, N=4, read-out: IC50 to limit APP 5′UTR-luciferase expression) is 5000 nM; in the assay on APP and amyloid-beta [5], 1000 nM.
